pEC50: −log10 of the molar value. Read-outs that look alike come from different tables or passages of the source.

In patent publication US12655125B2 (SIRONAX LTD., priority 2020, dated 2026) one finds EC50 data, which are given here for 17 compounds.

This test concerns HT-29 cells. Description: HT29 Cells 0FBS Assay In Vitro (TNF-α/SMAC mimetic/zVAD-FMK induced necroptosis, CellTiter-Glo cell viability). The test is classed as cell-based. The conditions noted are these: Homo sapiens, HT-29 cells, FBS free medium, TNF-α (10 ng/ml), SMAC mimetic (6 uM), zVAD-FMK (10 μM), 20 hours, geometric mean EC50. An excerpt:
Protocol for HT29 Cells 0FBS Assay In Vitro
• Cell line: HT-29 (ATCC® HTB-38™) • Culture medium: McCOY's 5 A, Gibco, Cat No. 16600-082 • FBS, Gibco, Cat No. 10099-141C • Trypsin: Gibco, Cat No. 25200-056 • DMSO: Sigma, Cat No. 67-68-5, 1 L • Assay plate: Corning #3903 • Compound dilution plate: Corning #3357 • Inducers: TNFα, GenScript, Cat No. ZO1001-50, • SmacM, Cat. No., HY-15989, MedChemExpress (MCE) • Z_VAD FMK, TargetMol, T6013 • Cell Titer-Glo® Luminescent Cell Viability Assay Kit: Promega, Cat No. G7573 • EnVision: PerkinElmer, 2105-0010 2. Cell Seeding of HT-29 Cells • 1) HT-29 cells were checked every day to make sure they are healthy and growing as expected. They were split sub-culturing when were approximately 80% confluent. • 2) First pre-warm the culture medium of McCOY's 5 A medium (Gibco, Cat No. 16600-082) with 10% FBS (Gibco, Cat No. 10099-141C) in 37° C. water bath for at least 30 min. • 3) Growing cells to desired level of confluency 80% in a T75 flask, aspirate the medium, and wash with warm PBS two times. • 4) Add 2-3 ml fresh warm trypsin (Gibco, Cat No. 25200-056) solution. Transfer the flask to a 37° C. incubator. • 5) After 5 minutes, tap the side of the flask, and examine the flask under a microscope for lifting. If necessary, return the cells to the incubator for an additional 5-10 minutes, with occasional tapping, until lifting is complete. • 6) Quickly neutralize the trypsin reaction by adding 6-9 ml cell culture medium, then transfer the cells to sterile 15 ml conical tubes. Pellet the cells by centrifugation at 300×g for 7 minutes, then decant the supernatant. • 7) Resuspend the cells in fresh cell culture medium. Do cell counting with hemocytometer. • 8) Seed 100 μl of 5,000 cells into each well of the sterile 96-well cell culture plate (Corning 3903) and culture overnight at 37° C. with 5% C02. 3. Compounds Titration and Treatment of HT-29 Cells • 1) All batches of compounds (CPDs) (e.g., compound 1-281) were dissolved in DMSO (Dimethyl sulfoxide) as 20 mM stock solution. • 2) Take 3 ul 20 mM stock solution of CPDs to 27 ul DMSO and mix well, continue the titration ratio of 1:3 (20 ul CPDs+40 ul DMSO), e.g., to give solutions of CPDS at 6.6 mM, 2.2 mM, etc., till the 10 points end. • 3) Take out assay plates with HT-29 cells from incubator, remove all culture medium then wash 1 time with 1×PBS, and change fresh McCOY's 5 A medium of FBS free with a cocktail of TNF-α (10 ng/ml), the SMAC mimetic (6 uM) and zVAD-FMK (10 μM) to stimulate the HT-29 cells to increase pRIPK1 levels and necroptosis. • 4) Add 0.5 μL of the diluted compound to the corresponding 96-well assay plates. • 5) Incubate the assay plates for 20 hours at 37° C. with 5% C02. 4. Performing Cell Viability Detection of HT-29 Cells after Treated with Compounds • 1) The CellTiter-Glo® Luminescent Cell Viability Assay was employed to detect the ATP levels of viable HT-29 cells. • 2) Equilibrate the CellTiter-Glo® buffer and the lyophilized substrate to room temperature prior to use. • 3) Resuspend the CellTiter-Glo® substrate with CellTiter-Glo® buffer, mix by gently vortexing to obtain a homogeneous solution. • 4) Pipette 20 μl the enzyme/substrate mixture by multi-channel pipette into the 96-well assay plates from step 5) under the Compounds titration and treatment stage. • 5) Place the plates on an orbital shaker and mix the contents for 3 minutes to induce cell lysis. • 6) Then allow the plates to incubate at room temperature for 10 minutes to stabilize luminescent signal. • 7) Read and record luminescence signal with EnVision. • 8) The geometric mean EC50 of the compounds were calculated from points response dose with duplicate. In Tables 2 and 4, activity is provided as follows: +++=0.1 nM≤EC50<100 nM; ++=100 nM≤EC50<1000 nM; +=1000 nM≤EC50<10000 nM.
Background: In ATP-based viability assays light output follows the ATP content of the culture.

Setting [1] is: read-out: Cell activity (EC50) of Compounds 1-116.
Setting [2] is: read-out: Cell activity (EC50) of Compounds 117-281.

In general, pEC50 refers to the negative decadic logarithm of the EC50, by convention in mol/L. On to `Cn1ncc(C#N)c1-c1ncc(F)c(OC2CN(C(=O)N3N=CC[C@H]3c3cc(F)cc(F)c3)C2)n1` [compound 48, (S)-5-(4-((1-(5-(3,5-difluorophenyl)-4,5-dihydro-1H-pyrazole-1-carbonyl)azetidin-3-yl)oxy)-5-fluoropyrimidin-2-yl)-1-methyl-1H-pyrazole-4-carbonitrile], for which the pEC50 under setting [1] was 7.00 to 10.00.

Turning to `Cc1ncc(-c2ncc(F)c(OC3CN(C(=O)N4N=CC[C@H]4c4cc(F)cc(F)c4)C3)n2)s1` [compound 25, (S)-(5-(3,5-difluorophenyl)-4,5-dihydro-1H-pyrazol-1-yl)(3-((5-fluoro-2-(2-methylthiazol-5-yl)pyrimidin-4-yl)oxy)azetidin-1-yl)methanone], the negative-log EC50 (pEC50) under setting [1] is 7.00 to 10.00.

For `COCCNc1cnn(C)c1-c1cc(OC2CN(C(=O)N3N=CC[C@H]3c3cc(F)cc(F)c3)C2)c(F)cn1` [compound 56, (S)-(5-(3,5-difluorophenyl)-4,5-dihydro-1H-pyrazol-1-yl)(3-((5-fluoro-2-(4-((2-methoxyethyl)amino)-1-methyl-1H-pyrazol-5-yl)pyridin-4-yl)oxy)azetidin-1-yl)methanone], under setting [1], the negative logarithm of the EC50 (pEC50) was 7.00 to 10.00.

In the case of `Cn1ncc(F)c1-c1ncc(F)c(OC2CN(C(=O)N3N=CC[C@H]3c3cc(F)cc(F)c3)C2)n1` [compound 82, (S)-(5-(3,5-difluorophenyl)-4,5-dihydro-1H-pyrazol-1-yl)(3-((5-fluoro-2-(4-fluoro-1-methyl-1H-pyrazol-5-yl)pyrimidin-4-yl)oxy)azetidin-1-yl)methanone], the pEC50 under setting [1] is 7.00 to 10.00.

On to `Cn1nccc1-c1cc(OC2CN(C(=O)N3N=CCC3c3cc(F)cc(F)c3)C2)c(F)cn1` (centres unmarked) [compound 250, (5-(3,5-difluorophenyl)-4,5-dihydro-1H-pyrazol-1-yl)(3-((5-fluoro-2-(1-methyl-1H-pyrazol-5-yl)pyridin-4-yl)oxy)azetidin-1-yl)methanone], for which the pEC50 under setting [2] is 7.00 to 10.00.

Consider `COCc1c(C)nn(-c2cc(OC3CN(C(=O)N4N=CC[C@H]4c4cc(F)cc(F)c4)C3)c(F)cn2)c1C` [compound 155, (S)-(5-(3,5-difluorophenyl)-4,5-dihydro-1H-pyrazol-1-yl)(3-((5-fluoro-2-(4-(methoxymethyl)-3,5-dimethyl-1H-pyrazol-1-yl)pyridin-4-yl)oxy)azetidin-1-yl)methanone], for which the pEC50 under setting [2] was 7.00 to 10.00.

As to `Cn1cncc1-c1ncc(F)c(OC2CN(C(=O)N3N=CC[C@H]3c3cc(F)cc(F)c3)C2)n1` [compound 8, (S)-(5-(3,5-difluorophenyl)-4,5-dihydro-1H-pyrazol-1-yl)(3-((5-fluoro-2-(1-methyl-1H-imidazol-5-yl)pyrimidin-4-yl)oxy)azetidin-1-yl)methanone], the pEC50 under setting [1] is 7.00 to 10.00.

For the compound `Cc1nn(-c2cc(OC3CN(C(=O)N4N=CC[C@H]4c4cc(F)cc(F)c4)C3)c(F)cn2)c(C)c1CN1CCCC1=O` [compound 274, (S)-1-((1-(4-((1-(5-(3,5-difluorophenyl)-4,5-dihydro-1H-pyrazole-1-carbonyl)azetidin-3-yl)oxy)-5-fluoropyridin-2-yl)-3,5-dimethyl-11H-pyrazol-4-yl)methyl)pyrrolidin-2-one], the pEC50 under setting [2] is 7.00 to 10.00.

For `O=C(N1CC(Oc2nc(-c3ccn[nH]3)ncc2F)C1)N1N=CC[C@H]1c1cc(F)cc(F)c1` [compound 87, (S)-(5-(3,5-difluorophenyl)-4,5-dihydro-1H-pyrazol-1-yl)(3-((5-fluoro-2-(1H-pyrazol-5-yl)pyrimidin-4-yl)oxy)azetidin-1-yl)methanone], the pEC50 under setting [1] was 7.00 to 10.00.

Regarding `CNC(=O)Nc1cnn(C)c1-c1cc(OC2CN(C(=O)N3N=CC[C@H]3c3cc(F)cc(F)c3)C2)c(F)cn1` [compound 142, (S)-1-(5-(4-((1-(5-(3,5-difluorophenyl)-4,5-dihydro-1H-pyrazole-1-carbonyl)azetidin-3-yl)oxy)-5-fluoropyridin-2-yl)-1-methyl-11H-pyrazol-4-yl)-3-methylurea], the pEC50 under setting [2] is 7.00 to 10.00.

Regarding `CC(=O)Nc1cnn(C)c1-c1cc(OC2CN(C(=O)N3N=CC[C@H]3c3cc(F)cc(F)c3)C2)c(F)cn1` [compound 57, (S)—N-(5-(4-((1-(5-(3,5-difluorophenyl)-4,5-dihydro-1H-pyrazole-1-carbonyl)azetidin-3-yl)oxy)-5-fluoropyridin-2-yl)-1-methyl-1H-pyrazol-4-yl)acetamide], the pEC50 under setting [1] was 7.00 to 10.00.

Regarding `CC(=O)Nc1c(C)nn(-c2cc(OC3CN(C(=O)N4N=CC[C@H]4c4cc(F)cc(F)c4)C3)c(F)cn2)c1C` [compound 140, (S)—N-(1-(4-((1-(5-(3,5-difluorophenyl)-4,5-dihydro-1H-pyrazole-1-carbonyl)azetidin-3-yl)oxy)-5-fluoropyridin-2-yl)-3,5-dimethyl-1H-pyrazol-4-yl)acetamide], under setting [2], the pEC50 is 7.00 to 10.00.

For `CCOC(=O)c1[nH]c(C)c(-c2cc(OC3CN(C(=O)N4N=CC[C@H]4c4cc(F)cc(F)c4)C3)c(F)cn2)c1C` [compound 153, Ethyl (S)-4-(4-((1-(5-(3,5-difluorophenyl)-4,5-dihydro-1H-pyrazole-1-carbonyl)azetidin-3-yl)oxy)-5-fluoropyridin-2-yl)-3,5-dimethyl-1H-pyrrole-2-carboxylate], the pEC50 under setting [2] is 7.00 to 10.00.

For the compound `COc1cnn(C)c1-c1cc(OC2CN(C(=O)N3N=CC[C@H]3c3cc(F)cc(F)c3)C2)c(F)cn1` [compound 50, (S)-(5-(3,5-difluorophenyl)-4,5-dihydro-1H-pyrazol-1-yl)(3-((5-fluoro-2-(4-methoxy-1-methyl-1H-pyrazol-5-yl)pyridin-4-yl)oxy)azetidin-1-yl)methanone], under setting [1], the pEC50 is 7.00 to 10.00.

On to `Cc1nn(C)c(-c2cc(OC3CN(C(=O)N4N=CC[C@H]4c4cc(F)cc(F)c4)C3)c(F)cn2)c1N` [compound 209, (S)-(3-((2-(4-amino-1,3-dimethyl-1H-pyrazol-5-yl)-5-fluoropyridin-4-yl)oxy)azetidin-1-yl)(5-(3,5-difluorophenyl)-4,5-dihydro-1H-pyrazol-1-yl)methanone], for which the pEC50 under setting [2] was 7.00 to 10.00.

Take `Cn1ncc(C#N)c1-c1cc(OC2CN(C(=O)N3N=CC[C@H]3c3cc(F)cc(F)c3)C2)c(F)cn1` [compound 49, (S)-5-(4-((1-(5-(3,5-difluorophenyl)-4,5-dihydro-1H-pyrazole-1-carbonyl)azetidin-3-yl)oxy)-5-fluoropyridin-2-yl)-1-methyl-1H-pyrazole-4-carbonitrile]: the pEC50 under setting [1] is 7.00 to 10.00.

For `Cc1nn(-c2cc(OC3CN(C(=O)N4N=CC[C@H]4c4cc(F)cc(F)c4)C3)c(F)cn2)c(C)c1CC(=O)N1CCOCC1` [compound 224, (S)-2-(1-(4-((1-(5-(3,5-difluorophenyl)-4,5-dihydro-1H-pyrazole-1-carbonyl)azetidin-3-yl)oxy)-5-fluoropyridin-2-yl)-3,5-dimethyl-1H-pyrazol-4-yl)-1-morpholinoethan-1-one], the pEC50 under setting [2] was 7.00 to 10.00.
